Seven molecules from patent US20250280827A1, “An antifungal composition comprising natamycin and at least one insecticide” (priority 2021, published 2025) can be followed below.

One test concerns Colletotrichum spp. Kind of test: Antifungal effect against Colletotrichum infection on wounded skin of pepper fruits (Colby synergy). The test is classed as in vivo. The text has this: wherein X and Y are the observed antifungal activities (in %) of the individual active ingredients x and y, respectively. If the observed antifungal activity (O in %) of the combination exceeds the expected antifungal activity (E in %) of the combination and the synergy factor O/E is thus >1.0, the combined application of the active ingredients leads to a synergistic antifungal effect. […]
For the treatment, 5 wounds per pepper side were done as previously described. In addition, one wound was done as negative control. Depending on the number of sides of the pepper, 3 to 4 treatments were done per paprika. Per wound 10 μl of treatment was placed on the wound. The treatments were let to dry in a down flow cabinet for about 30 minutes. After drying 5 μl spore suspension at a concentration of 10^7 spores per ml were placed on the wounds. The fungus was isolated from Colletotrichum-infected plant material and identified using techniques known to the person skilled in the art. The pepper were placed as described previously in a transparent container, with the difference that the containers were then placed in a transparent plastic zipper bag. The bags with peppers were placed at room temperature and in the dark for two days. After that the size of the lesions were measured. Assessment of the infection area was 4 days after inoculation. Experiment was performed in 5-fold.
The fungus was isolated from Colletotrichum-infected plant material and identified using techniques known to the person skilled in the art. Assessment of the infection area was performed 5 days after inoculation. Experiment was performed in 5-fold.
The active ingredient imidacloprid was formulated as described in Table 2. Imidacloprid belonging to IRAC Group 4. The fungus was isolated from Colletotrichum-infected plant material and identified using techniques known to the person skilled in the art. Assessment of the infection area was performed 5 days after inoculation. Experiment was performed in 5-fold.
The fungus was isolated from Colletotrichum-infected plant material and identified using techniques known to the person skilled in the art. Assessment of the efficacy was 5 days after inoculation. Experiment was performed in 5-fold.
The fungus was isolated from Colletotrichum-infected plant material and identified using techniques known to the person skilled in the art. Assessment of the infection area was performed 6 days after inoculation. Experiment was performed in 5-fold.
The fungus was isolated from Colletotrichum-infected plant material and identified using techniques known to the person skilled in the art. Assessment of the infection area was performed 4 days after inoculation. Experiment was performed in 5-fold.

For another test, the system named is Sclerotinia sclerotiorum. Kind of test: Antifungal effect against Sclerotinia sclerotiorum infection on wounded skin of broad bean pods (rot area, Colby synergy). It counts as in vivo. The text has this:
The Colby equation (Colby, 1967. Weeds 15:20-22) calculates the expected antifungal activity (E in %) of a combination comprising more than one active ingredients:
wherein X and Y are the observed antifungal activities (in %) of the individual active ingredients x and y, respectively. If the observed antifungal activity (O in %) of the combination exceeds the expected antifungal activity (E in %) of the combination and the synergy factor O/E is thus >1.0, the combined application of the active ingredients leads to a synergistic antifungal effect.
• 1) Control (without natamycin and lambda-cyhalothrin) • 2) Natamycin at a level of 15 ppm • 3) Lambda-cyhalothrin (in the product KARATE ZEON® of Syngenta) at a levels of 0.15 ppm, 0.6 ppm, 3 ppm and 15 ppm • 4) Natamycin at a level of 15 ppm combined with lambda-cyhalothrin at levels of 0.15 ppm, 0.6 ppm, 3 ppm or 15 ppm.
Used pathogen: Sclerotinia sclerotiorum.
Application: The broad bean pods were washed under tap water, and were subsequently surface sterilized by placing them in a 0.1% sodium hypochlorite solution for 5 minutes. The pods were then rinsed with tap water and dried. Transparent plastic containers were prepared by placing a piece of absorbing paper in the container and adding 25 ml of water, one container per treatment was used. The pods were cut in two, and two halve pods were incubated per box. The skin of broad bean pods was damaged with a needle, ø 2 mm and to a depth of about 3 mm into the fruit, with—depending on the size of the pod—2 to 4 wounds per half pod. In total, 6 wounds were incubated per treatment, of which 1 was used as a control. A volume of 20 microliter of a natamycin/insecticide composition, as presented herein above, was applied by pipette to each wound. The treatments were then left to air-dry. Once dried, a mycelium plug of Sclerotinia sclerotiorum was placed upside down on each wound, so that the mycelium was in direct contact with the wound. Per treatment 5 wounds were inoculated with the fungus, while the 6th and last wound was used as negative non-inoculated control. After inoculation, the containers were directly closed with a transparent plastic lid.
All pods were kept at room temperature (20° C.). Wounds of the pods were checked after 30 h of incubation.
Replicates: All treatments for the broad bean pod experiment were performed on two individual pod halves resulting in 5 wounds per treatment, while a sixth wound served as control.
The experiments were performed as described in Example 1.
The experiments were performed as described in Example 1. Assessment of the infection area was 23 h after inoculation. Experiment was performed in 5-fold.
The experiments were performed as described in Example 1. Thiamethoxam belongs to IRAC Group 4. Assessment of the infection area was 31 hours after inoculation. Experiment was performed in 5-fold.
The experiments were performed as described in Example 1. The product SPECTRE® of company (Adama) containing the active ingredient chlorfenapyr belonging to IRAC Group 13 was tested. Assessment of the infection area was 23 hours after inoculation. Experiment was performed in 5-fold.

The mark [1] stands for this setting: natamycin:fipronil 0:0.01 ppm, 6 days after inoculation, Table 19.
Where [2] appears, read: natamycin:fipronil 0:0.04 ppm, 6 days after inoculation, Table 19.
Where [3] appears, read: natamycin:fipronil 0:1 ppm, 6 days after inoculation, Table 19.
Setting [4] is: natamycin-insecticide 0-0.15 ppm, 23 h after inoculation, Table 7.
[5] abbreviates: natamycin-insecticide 0-0.6 ppm, 23 h after inoculation, Table 7.
Where [6] appears, read: natamycin-insecticide 0-3 ppm, 23 h after inoculation, Table 7.
The mark [7] stands for this setting: natamycin-insecticide 0-15 ppm, 23 h after inoculation, Table 7.
Where [8] appears, read: natamycin-insecticide 0:0.01 ppm, 5 days after inoculation, Table 17.
The mark [9] stands for this setting: natamycin-insecticide 0:0.04 ppm, 5 days after inoculation, Table 17.
Where [10] appears, read: natamycin-insecticide 0:1 ppm, 5 days after inoculation, Table 17.
The mark [11] stands for this setting: natamycin-insecticide 0-0.15 ppm, 23 hours after inoculation, Table 9.
Where [12] appears, read: natamycin-insecticide 0-0.6 ppm, 23 hours after inoculation, Table 9.
Setting [13] is: natamycin-insecticide 0-3 ppm, 23 hours after inoculation, Table 9.
Setting [14] is: natamycin-insecticide 0-15 ppm, 23 hours after inoculation, Table 9.
The mark [15] stands for this setting: natamycin-insecticide 0-0.15 ppm, 31 hours after inoculation, Table 8.
Setting [16] is: natamycin-insecticide 0-0.6 ppm, 31 hours after inoculation, Table 8.
Where [17] appears, read: natamycin-insecticide 0-3 ppm, 31 hours after inoculation, Table 8.
[18] abbreviates: natamycin-insecticide 0-15 ppm, 31 hours after inoculation, Table 8.
The mark [19] stands for this setting: natamycin:abamectin 0:0.01 ppm, 4 days after inoculation, Table 20.
Where [20] appears, read: natamycin:abamectin 0:0.04 ppm, 4 days after inoculation, Table 20.
Where [21] appears, read: natamycin-insecticide 0:0.01 ppm, 4 days after inoculation, Table 13.
Where [22] appears, read: natamycin-insecticide 0:0.04 ppm, 4 days after inoculation, Table 13.
Where [23] appears, read: natamycin-insecticide 0:1 ppm, 4 days after inoculation, Table 13.

Consider `N#Cc1nn(-c2c(Cl)cc(C(F)(F)F)cc2Cl)c(N)c1[S+]([O-])C(F)(F)F` (racemic) [fipronil, (±)-5-amino-1-(2,6-dichloro-α,α,α-trifluoro-p-tolyl)-4-trifluoromethyl sulfinylpyrazole-3-carbonitrile], for which the figures for the Avg infected area with Colletotrichum spp. (setting [1]), with Colletotrichum spp. (setting [2]) and with Colletotrichum spp. (setting [3]) were 88.2 mm^2, 76.8 mm^2 and 80.4 mm^2, respectively. Also, the Observed antifungal activity in the test with Colletotrichum spp. (setting [1]) is listed as −76.1%; with Colletotrichum spp. (setting [2]) it was −53.4%; in the test with Colletotrichum spp. (setting [3]), −60.5%.

For the molecule `C/C=C(\C)C(=O)O[C@H]1C[C@@H](OC(C)=O)[C@@]2(C(=O)OC)CO[C@H]3[C@@H](O)[C@@](C)([C@]45O[C@@]4(C)[C@H]4C[C@@H]5O[C@@H]5OC=C[C@@]54O)[C@H]4[C@]1(CO[C@]4(O)C(=O)OC)[C@@H]32` [azadirachtin], the Avg infected area in the test on Sclerotinia sclerotiorum (setting [4]) is 80.2 mm2; with Sclerotinia sclerotiorum (setting [5]) it was 82.0 mm2; in the test on Sclerotinia sclerotiorum (setting [6]), 98.3 mm2; in the test with Sclerotinia sclerotiorum (setting [7]), 123.1 mm2. Also, the Observed antifungal activity came to 41.3% in the test on Sclerotinia sclerotiorum (setting [4]), 40% in the test on Sclerotinia sclerotiorum (setting [5]), 28.1% in the test on Sclerotinia sclerotiorum (setting [6]) and 9.9% in the test on Sclerotinia sclerotiorum (setting [7]).

For the molecule `CNC(=O)c1cc(Cl)cc(C)c1NC(=O)c1cc(Br)nn1-c1ncccc1Cl` [chlorantraniliprole, 5-bromo-N-[4-chloro-2-methyl-6-(methylcarbamoyl)phenyl]-2-(3-chloropyridin-2-yl) pyrazole-3-carboxamide], the figures for the Avg infected area with Colletotrichum spp. (setting [8]), in the test with Colletotrichum spp. (setting [9]) and in the test with Colletotrichum spp. (setting [10]) were 38.8 mm2, 55.6 mm2 and 66.4 mm2, respectively. Moreover, the Observed antifungal activity in the test with Colletotrichum spp. (setting [8]) is reported as 29.8%; in the test on Colletotrichum spp. (setting [9]), −0.7%; in the test with Colletotrichum spp. (setting [10]), −20.2%.

For the molecule `CCOCn1c(-c2ccc(Cl)cc2)c(C#N)c(Br)c1C(F)(F)F` [chlorfenapyr], the Avg infected area with Sclerotinia sclerotiorum (setting [11]) is 86.9 mm2; in the test on Sclerotinia sclerotiorum (setting [12]), 71.3 mm2; in the test with Sclerotinia sclerotiorum (setting [13]) it was 92.3 mm2; in the test with Sclerotinia sclerotiorum (setting [14]) it was 94.9 mm2. Moreover, the Observed antifungal activity in the test on Sclerotinia sclerotiorum (setting [11]) stood at 23.6%; with Sclerotinia sclerotiorum (setting [12]), 37.3%; in the test with Sclerotinia sclerotiorum (setting [13]), 18.8%; with Sclerotinia sclerotiorum (setting [14]) it was 16.5%.

`CN1COCN(Cc2cnc(Cl)s2)C1=N[N+](=O)[O-]` [thiamethoxam, N-[3-[(2-chloro-1,3-thiazol-5-yl)methyl]-5-methyl-1,3,5-oxadiazinan-4-ylidene]nitramide]: the Avg infected area in the test with Sclerotinia sclerotiorum (setting [15]) stood at 250.6 mm2; in the test with Sclerotinia sclerotiorum (setting [16]), 270.9 mm2; in the test on Sclerotinia sclerotiorum (setting [17]) it was 253.2 mm2; in the test with Sclerotinia sclerotiorum (setting [18]), 254.1 mm2. The Observed antifungal activity was 2.9% in the test with Sclerotinia sclerotiorum (setting [15]), −4.9% with Sclerotinia sclerotiorum (setting [16]), 1.9% in the test on Sclerotinia sclerotiorum (setting [17]) and 1.6% with Sclerotinia sclerotiorum (setting [18]).

Consider abamectin, for which, in the test on Colletotrichum spp. (setting [19]), the Avg infected area turned out to be 29.0 mm2 and the Observed antifungal activity is −29.3%. Also, in the test on Colletotrichum spp. (setting [20]), the Avg infected area is on record as 30.7 mm2 and the Observed antifungal activity is −37.0%.

Take “emamectin benzoate [emamection benzoate]”: the Avg infected area amounted to 30.6 mm2 with Colletotrichum spp. (setting [21]), 16.6 mm2 in the test with Colletotrichum spp. (setting [22]) and 24 mm2 in the test with Colletotrichum spp. (setting [23]). Also, the Observed antifungal activity with Colletotrichum spp. (setting [21]) is recorded as −90.1%; in the test on Colletotrichum spp. (setting [22]) it was −3.5%; in the test with Colletotrichum spp. (setting [23]) it was −49.1%.
